Read-outs that look alike come from different tables or passages of the source.
Legend:
[1] = in vitro; settings: human
[2] = system: respiratory syncytial virus (RSV); assay: Inhibition of respiratory syncytial virus replication by CPE in HEp-2; type: cell-based; settings: human respiratory syncytial virus, HEp-2, read-out: RSV (HEp-2) EC50
[3] = Cytotoxicity in MDCK cells (no viral infection); type: cell-based; settings: dog, without viral infection, read-out: H3N2 (MDCK) CC50
Method: (§1) Determination of the inhibitory activity of compounds on the replication of respiratory syncytial virus (RSV), human coronavirus OC43, influenza A virus, and Zika virus by Cytopathogenic effect (CPE): the experimental cells were inoculated at a certain cell density to 96 well cell culture plates, and cultured overnight in a 5% CO2, 37° C. incubator. The compounds and viruses were added the next day. Depending on the tested virus, the cells were cultured in an incubator for 3-7 days under 5% CO2, 33° C. or 37° C., until 80-95% of the cells in the virus-infected control wells without compound had pathological changes. Cell viability in each well was then detected with CellTiter-Glo or CCK-8. […] The cytotoxicity test method is the same as the corresponding antiviral test method, but without viral infection.
(§2) The antiviral activity and cytotoxicity of the compound are represented by the inhibition rate (%) of the compound on the virus-induced cellular viral effect and the cell viability (%), respectively. Calculation equations are as follows:
(§3) Cell viability (%)=(reading value of test well−average value of medium control)/(average value of cell control−average value of medium control)×100;
(§4) EC50 and CC50 values were calculated by Prism software, and the inhibition curve fitting method was “log (inhibitor) vs. response—Variable slope”.

[4] = system: influenza A virus (H3N2); assay: Inhibition of influenza virus H3N2 replication by CPE in MDCK; type: cell-based; settings: MDCK cells
[5] = Cytotoxicity in Vero cells (SARS-CoV-2 test); type: cell-based; settings: African green monkey
[6] = system: 2019 novel coronavirus (SARS-CoV-2); assay: Inhibition of SARS-CoV-2 replication in Vero cells (qRT-PCR); type: cell-based; settings: Severe acute respiratory syndrome coronavirus 2, 48 hours, virus copy number in supernatant by qRT-PCR
[7] = system: dengue virus (DENV); assay: Dengue virus plaque reduction assay in Vero cells; type: cell-based; settings: read-out: DENV (Vero) Inhibition rate at 5 μM
Method: Determination of the inhibitory activity of compounds against dengue virus by plaque reduction assay: Vero cells were inoculated into 6-well cell culture plates at a density of 600,000 cells per well, and cultured overnight in a 5% CO2, 37° C. incubator. The compounds and virus (40-50 PFU/well) were added the next day. The cells were cultured in an incubator at 5% CO2 and 37° C. for 2 hours, then the supernatant was aspirated, and the low-melting point agarose culture medium containing the corresponding concentration of the compound was added. The cells were cultured in an incubator at 5% CO2, 33° C. or 37° C. for 6-7 days, until obvious virus plaques could be observed in the virus-infected control wells without compound under the microscope. Cells were fixed with 4% paraformaldehyde and stained with crystal violet. The number of plaques in each well was calculated. Cytotoxicity experiments were performed in parallel with antiviral experiments. Vero cells were inoculated into 96-well cell culture plates at a density of 20,000 cells per well, and cultured overnight in a 5% CO2, 37° C. incubator. The compounds were added the next day (1-5 concentration points, single point). The cells were cultured in an incubator at 5% CO2, 33° C. or 37° C. for 6-7 days. Cell viability in each well was then detected with CCK-8.

[8] = Cytotoxicity in Huh7 cells (no viral infection); type: cell-based; settings: human, without viral infection, read-out: HCoV OC43 (Huh7) CC50
Method: as §1, §2, §3, §4

[9] = type: in vivo, rat; settings: SD rats
Method: 6 Male SD rats for each compound were divided into 2 groups (gastric administration group and intravenous injection group), 3 rats in each group. The rats were fasted for 12 h before the experiment (the intravenous experiment group was not fasted), had free access to water, and ate uniformly 4 hours after the administration. […] The dosage of C38 was 10 mg/kg for intragastric administration, 2 mg/kg for intravenous injection, and the administration vehicle was DMSO/EtOH/PEG300/0.9% NaCl (5/5/40/50, v/v/v/v). 0.2 mL of blood was collected from the jugular vein at 5 min (intravenous group only), 0.25 h, 0.5 h, 1.0 h, 2.0 h, 4.0 h, 6.0 h, 8.0 h and 24 h after the administration, placed in an EDTA-K2 test tube and centrifuged at 11,000 rpm for 5 minutes, and the plasma was separated, and stored in a −70° C. refrigerator for testing. The operation was under an ice water bath. The concentration of nucleoside metabolites in plasma was determined by LC-MS-MS, and the pharmacokinetic parameters were calculated.

[10] = system: porcine epidemic diarrhea virus (PEDV); assay: Inhibition of PEDV replication in Vero cells by fluorescent quantitative PCR; settings: 36 h, read-out: PEDV (Vero) EC50
[11] = in monkeys; cited from earlier work
[12] = system: Zika virus; assay: Inhibition of Zika virus replication by CPE in Huh7; type: cell-based; settings: for inhibition at 5 µM: Huh-7, read-out: Zika (Huh7) Inhibition rate
[13] = type: in vivo, rat; settings: SD rats; for AUC(0-t) / AUC(0-∞) / Cmax / T1/2 / Tmax: nucleoside metabolite in plasma; for F % (bioavailability): nucleoside metabolite
Method: 6 Male SD rats for each compound were divided into 2 groups (gastric administration group and intravenous injection group), 3 rats in each group. The rates were fasted for 12 h before the experiment (the intravenous experiment group was not fasted), had free access to water, and ate uniformly 4 hours after the administration. The dosages of C22 and C23 were 16 mg/kg and 20 mg/kg for intragastric administration, respectively, and the administration vehicle was 5% DMSO+5% solutol+90% saline. The intravenous injection dosages were 4 mg/kg and 5 mg/kg respectively, and the administration vehicle was DMSO/EtOH/PEG300/0.9% NaCl (5/5/40/50, v/v/v/v). 0.2 mL of blood was collected from the jugular vein 5 min, 0.25 h, 0.5 h, 1.0 h, 2.0 h, 4.0 h, 6.0 h, 8.0 h and 24 h after the administration, placed in an EDTA-K2 test tube abd centrifuged at 11,000 rpm for 5 minutes, and the plasma was separated, and stored in a −70° C. refrigerator for testing. The operation was under an ice water bath. The concentration of nucleoside metabolites in plasma was determined by LC-MS-MS, and the pharmacokinetic parameters were calculated.

[14] = type: in vivo, cynomolgus monkey; settings: cynomolgus monkeys, single intragastric 0.35 mmol/kg
[15] = nucleoside metabolite in plasma, iv 2 mg/kg
[16] = nucleoside metabolite in plasma, po 10 mg/kg

## CC(=O)OC[C@@]1(F)O[C@@H](n2ccc(=O)[nH]c2=O)[C@@H]2OC(=O)O[C@@H]21 [Compound B38]
[1]
  CC50: > 10000 nM
[2]
  EC50: 990 nM
[3]
  CC50: > 10000 nM
[4]
  EC50: 540 nM

## CC(C)C(=O)OC[C@@]1(F)O[C@@H](n2ccc(=O)[nH]c2=O)[C@@H]2OC(=O)O[C@@H]21 [Compound B2]
[1]
  CC50: > 10000 nM
[2]
  EC50: > 10000 nM
[3]
  CC50: > 10000 nM
[4]
  EC50: > 10000 nM

## [2H]c1cc([C@]2(C#N)O[C@H](CO)[C@@H](O)[C@H]2O)n2ncnc(N)c12 [Compound C22-0]
[1]
  CC50: > 10000 nM
[5]
  CC50: > 10000 nM
[2]
  EC50: 560 nM
[6]
  EC50: 460 nM
[7]
  inhibition at 5 µM: 100%
[8]
  CC50: > 10000 nM

## [2H]c1cc([C@]2(C#N)O[C@H](CO)[C@H]3OC(CC)O[C@H]32)n2ncnc(N)c12 (some centres unmarked) [Compound C38]
[9]; [15]
  AUC(0-t): 551 ng·h/mL
  AUC(0-∞): 586 ng·h/mL
  Cmax: 217 ng/mL
  T1/2: 1.9 h
[9]; [16]
  AUC(0-t): 2388 ng·h/mL
  AUC(0-∞): 2454 ng·h/mL
  Cmax: 586 ng/mL
  T1/2: 3.1 h
  Tmax: 0.75 h
[9]; nucleoside metabolite, po 10 mg/kg vs iv 2 mg/kg
  F % (bioavailability): 87%

## CC(C)C(=O)OC[C@H]1O[C@@H](n2ccc(NO)nc2=O)[C@@H]2OC(=O)O[C@@H]21 [Compound A2]
[3]
  CC50: > 10000 nM
[4]
  EC50: > 10000 nM

## O=c1nc(NO)ccn1[C@@H]1O[C@H](CO)[C@@H](O)[C@H]1O [NHC, β-d-N4-hydroxycytidine]
[1]
  CC50: > 10000 nM
[5]
  CC50: > 10000 nM
[2]
  EC50: 4600 nM
[10]
  EC50: 1170 nM
[6]
  EC50: 300 nM
[7]
  inhibition at 5 µM: 40%
[3]
  CC50: > 10000 nM
[4]
  EC50: 770 nM
[11]
  oral bioavailability: less than 10%
[12]
  inhibition at 5 µM: 66%

## [2H]c1cc([C@]2(C#N)O[C@H](COC(=O)C(C)C)[C@H]3OC(=O)O[C@H]32)n2ncnc(N)c12 [Compound C23]
[13]; iv 5 mg/kg
  AUC(0-t): 3954 ng·h/mL
  AUC(0-∞): 4024 ng·h/mL
  Cmax: 3903 ng/mL
  T1/2: 5.24 h
[13]; po 20 mg/kg
  AUC(0-t): 11360 ng·h/mL
  AUC(0-∞): 11393 ng·h/mL
  Cmax: 2933 ng/mL
  T1/2: 3.47 h
  Tmax: 1.0 h
[13]; po 20 mg/kg vs iv 5 mg/kg
  F % (bioavailability): 71.8%

## O=C1O[C@H]2[C@H](n3ccc(=O)[nH]c3=O)O[C@](F)(COC(=O)C3CC3)[C@H]2O1 [Compound B4]
[1]
  CC50: > 10000 nM
[2]
  EC50: 1020 nM
[3]
  CC50: > 10000 nM
[4]
  EC50: 1380 nM

## CCC(CC)COC(=O)[C@H](C)N[P@](=O)(OC[C@@]1(F)O[C@@H](n2ccc(=O)[nH]c2=O)[C@@H]2OC(=O)O[C@@H]21)Oc1ccccc1 [Compound B14]
[1]
  CC50: > 10000 nM
[2]
  EC50: 1080 nM

## N#C[C@@]1(c2ccc3c(N)ncnn23)O[C@H](CO)[C@H]2OC(=O)O[C@H]21 [Compound C21]
[1]
  CC50: > 10000 nM
[2]
  EC50: 490 nM

## CC(C)[C@H](N)C(=O)OC[C@H]1O[C@@H](n2cc/c(=N/O)[nH]c2=O)[C@@H]2OC(=O)O[C@@H]21.Cl [Compound A6]
[14]; analyte A1
  AUC(0-t): 818 ng·h/mL
  Cmax: 326 ng/mL
  Tmax: 1.50 h
  t1/2: 0.91 h
[14]; nucleoside metabolite NHC
  AUC(0-t): 2417 ng·h/mL
  Cmax: 1209 ng/mL
  T1/2: 0.83 h
  Tmax: 1.50 h

## N#C[C@@]1(c2ccc3c(N)ncnn23)O[C@H](CO)[C@@H](O)[C@H]1O [GS-441524, (2R,3R,4S,5R)-2-(4-aminopyrrolo[2,1-F][1,2,4]triazin-7-yl)-3,4-dihydroxy-5-(hydroxymethyl)tetrahydrofuran-2-carbonitrile]
[1]
  CC50: > 10000 nM
[5]
  CC50: > 10000 nM
[2]
  EC50: 730 nM
[10]
  EC50: 310 nM
[6]
  EC50: 470 nM
[8]
  CC50: > 10000 nM
[11]
  oral bioavailability: less than 10%
[12]; Huh-7, read-out: Zika (Huh7) EC50
  EC50: 15000 nM

## O=c1ccn([C@@H]2O[C@](F)(CO)[C@@H](O)[C@H]2O)c(=O)[nH]1 [Compound B1-N, reference compound]
[3]
  CC50: > 10000 nM
[4]
  EC50: < 1000 nM
[12]
  inhibition at 5 µM: 30%

## CCCCCCCCCCCCCCCC(=O)OC[C@@]1(F)O[C@@H](n2ccc(=O)[nH]c2=O)[C@@H]2OC(=O)O[C@@H]21 [Compound B41]
[1]
  CC50: > 10000 nM
[2]
  EC50: 460 nM
[3]
  CC50: > 10000 nM
[4]
  EC50: < 500 nM

## O=C1O[C@H]2[C@H](n3ccc(=O)[nH]c3=O)O[C@](F)(CO)[C@H]2O1 [Compound B1]
[1]
  CC50: > 10000 nM
[2]
  EC50: 990 nM
[3]
  CC50: > 10000 nM
[4]
  EC50: 370 nM

## [2H]c1cc([C@]2(C#N)O[C@H](CO)[C@H]3OC(=O)O[C@H]32)n2ncnc(N)c12 [Compound C22]
[13]; iv 4 mg/kg
  AUC(0-t): 2348 ng·h/mL
  AUC(0-∞): 2398 ng·h/mL
  Cmax: 2883 ng/mL
  T1/2: 1.35 h
[13]; po 16 mg/kg
  AUC(0-t): 7068 ng·h/mL
  AUC(0-∞): 7157 ng·h/mL
  Cmax: 2217 ng/mL
  T1/2: 1.08 h
  Tmax: 0.5 h
[13]; po 16 mg/kg vs iv 4 mg/kg
  F % (bioavailability): 75.3%

## CC(C)[C@H](N)C(=O)OC[C@@]1(F)O[C@@H](n2ccc(=O)[nH]c2=O)[C@@H]2OC(=O)O[C@@H]21 [Compound B6]
[1]
  CC50: > 10000 nM
[2]
  EC50: 3460 nM
[3]
  CC50: > 10000 nM
[4]
  EC50: < 500 nM

Reference: patent publication US20240166680A1, “NUCLEOSIDE ANALOG AND USE THEREOF” (SHANGHAI INSTITUTE OF MATERIA MEDICA, CHINESE ACADEMY OF …, priority 2021, published 2024)
